Test system: IL-6
Test: Human monocyte assay, LPS-stimulated IL-6
Assay type: cell-based
Conditions: Monocyte; human monocytes, 1 μg/ml LPS, 5 hours
Description: The assay was designed as in the reference, Physiol.
Peripheral blood mononuclear cells (hPBMC) were harvested from human blood and suspended in RPMI 1640 culture medium containing 10% FCS, 100 U/mL penicillin and […] streptomycin (assay medium). Monocytes in the hPBMCs were counted using a Coulter Counter following which the cells were resuspended at 2×10^5 monocytes/mL. A cell suspension containing 2×10^4 monocytes was aliquoted per well of a 96-well plate. Subsequently, the hPBMCs were incubated for 4-5 hours at 37° C., 5% CO2 (During the incubation, the monocytes adhered to the bottom of 96-well plastic culture plate). Following the incubation, the non-adherent lymphocytes were washed with assay medium and the adherent monocytes re-fed with assay medium. After a 48-hour incubation period (37° C., 5% CO2), monocytes were pretreated with various concentrations of representative compounds of present invention (refer to table 6 and 7) (prepared in DMSO) or vehicle (0.5% DMSO) for 30 minutes and stimulated with 1 μg/ml LPS (Escherchia coli 0111:B4, Sigma Chemical Co., St. Louis, Mo.). The incubation was continued for 5 hours at 37° C., 5% CO2. Supernatants were harvested, assayed for IL-6 and TNF-α by ELISA as described by the manufacturer (BD Biosciences, USA). Dexamethasone (10 μM) was used as standard for this assay. […] Biological results for both IL-6 and TNFα are indicated in Table 6 and Table 7 respectively.

Row | SMILES | IC50 [µM]
1 | CN(/N=C/c1cnc2ccc(-c3cccnc3)cn12)S(=O)(=O)c1ccc(Cl)c([N+](=O)[O-])c1 [Example 74, (E)-4-chloro-N-methyl-3-nitro-N′-((6-(pyridin-3-yl)imidazo[1,2-a]pyridin-3-yl)methylene) benzenesulfonohydrazide] | 0.001 to 5
2 | Cc1ccc(F)cc1S(=O)(=O)N(C)/N=C/c1cnc2ccc(-c3cccnc3F)cn12 [Example 87, (E)-5-Fluoro-N′-((6-(2-fluoropyridin-3-yl)imidazo[1,2-a]pyridin-3-yl)methylene)-N,2-dimethylbenzenesulfonohydrazide] | 0.001 to 5
3 | Cc1cc(-c2cccnc2)cn2c(/C=N/N(C)S(=O)(=O)c3ccccc3C#N)cnc12 [Example 104, (E)-2-cyano-N-methyl-N′-((8-methyl-6-(pyridin-3-yl)imidazo[1,2-a]pyridin-3-yl)methylene)benzenesulfonohydrazide] | ≥ 5
4 | Cc1cc(-c2cccnc2)cn2c(/C=N/N(C)S(=O)(=O)c3cccc(C#N)c3)cnc12 [Example 106, (E)-3-cyano-N-methyl-N′-((8-methyl-6-(pyridin-3-yl)imidazo[1,2-a]pyridin-3-yl)methylene)benzenesulfonohydrazide] | ≥ 5
5 | Cc1cc(S(=O)(=O)N(C)/N=C/c2cnc3c(C)cc(-c4cccnc4)cn23)ccc1Br [Example 107, (E)-4-Bromo-N,3-dimethyl-N′-((8-methyl-6-(pyridin-3-yl)imidazo[1,2-a]pyridin-3-yl)methylene)benzenesulfonohydrazide] | 0.001 to 5
6 | Cc1cc(-c2cccnc2)cn2c(/C=N/N(C)S(=O)(=O)c3cccc([N+](=O)[O-])c3)cnc12 [Example 109, (E)-N-methyl-N′-((8-methyl-6-(pyridin-3-yl)imidazo[1,2-a]pyridin-3-yl)methylene)-3-nitrobenzenesulfonohydrazide] | ≥ 5
7 | Cc1cc(-c2cccnc2)cn2c(/C=N/N(C)S(=O)(=O)c3cccc(Cl)c3)cnc12 [Example 110, (E)-3-Chloro-N-methyl-N′-((8-methyl-6-(pyridin-3-yl)imidazo[1,2-a]pyridin-3-yl)methylene)benzenesulfonohydrazide] | ≥ 5
8 | Cc1cc(-c2cccnc2)cn2c(/C=N/N(C)S(=O)(=O)c3ccc(Cl)c([N+](=O)[O-])c3)cnc12 [Example 113, (E)-4-Chloro-N-methyl-N′-((8-methyl-6-(pyridin-3-yl)imidazo[1,2-a]pyridin-3-yl)methylene)-3-nitrobenzenesulfonohydrazide] | 0.001 to 5
9 | Cc1cc(-c2cccnc2)cn2c(/C=N/N(C)S(=O)(=O)c3ccc(F)cc3Br)cnc12 [Example 114, (E)-2-Bromo-4-fluoro-N-methyl-N′-((8-methyl-6-(pyridin-3-yl)imidazo[1,2-a]pyridin-3-yl)methylene)benzenesulfonohydrazide] | ≥ 5
10 | Cc1cc2ncc(C=NN(C)S(=O)(=O)c3ccccc3C#N)n2cc1-c1cccnc1 [Example 117, 2-Cyano-N-methyl-N′-((7-methyl-6-(pyridin-3-yl)imidazo[1,2-a]pyridin-3-yl)methylene) benzenesulfonohydrazide] | ≥ 5
11 | Cc1cc2ncc(C=NN(C)S(=O)(=O)c3cc(F)ccc3C)n2cc1-c1cccnc1 [Example 118, 5-Fluoro-N, 2-dimethyl-N′-((7-methyl-6-(pyridin-3-yl)imidazo[1,2-a]pyridin-3-yl)methylene) benzenesulfonohydrazide] | ≥ 5

Same assay, conditions: human monocytes, 1 μg/ml LPS, 5 hours

Row | SMILES | IC50 [µM]
12 | COC(=O)c1ccc(S(=O)(=O)N(C)/N=C/c2cnc3ccc(-c4cccnc4)cn23)o1 [Example 73, (E)-Methyl 5-(1-methyl-2-((6-(pyridin-3-yl)imidazo[1,2-a]pyridin-3-yl)methylene) hydrazinylsulfonyl) furan-2-carboxylate] | ≥ 5
13 | Cc1cc(-c2cccnc2)cn2c(/C=N/N(C)S(=O)(=O)c3cc(F)cc(F)c3)cnc12 [Example 101] | 0.001 to 5
14 | Cc1cc(-c2cccnc2)cn2c(/C=N/N(C)S(=O)(=O)c3c(F)cc(F)cc3Br)cnc12 [Example 112] | ≥ 5

— patent US8741932B2, “Imidazopyridine derivatives” (Piramal Enterprises Limited, priority 2009, dated 2014)
